# In the supplement of paper PMC10307832:
# Legend:
# Assay in all cases: relative viability (nuclei count vs DMSO), 5 days (fraction); higher = more cells survive
# Quizartinib + Vorinostat = compound: CC(C)(C)c1cc(NC(=O)Nc2ccc(-c3cn4c(n3)sc3cc(OCCN5CCOCC5)ccc34)cc2)no1 [Quizartinib] + O=C(CCCCCCC(=O)Nc1ccccc1)NO [Vorinostat] (partner 1 µM)
# Procedure, shortened: (§1)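 Relative viability equals treated-well nuclei counts divided by vehicle-well nuclei counts. Counts came from 4× images of lung cancer cell lines grown in 1536-well plates for 5 days after pin-tool dosing on the day after seeding. Dosing used one drug alone or a fixed anchor-drug dose plus five library-drug doses (not always all listed) in √10 steps, and values are medians of duplicate plates.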
# Quizartinib + Decitabine = compound: CC(C)(C)c1cc(NC(=O)Nc2ccc(-c3cn4c(n3)sc3cc(OCCN5CCOCC5)ccc34)cc2)no1 [Quizartinib] + Nc1ncn([C@H]2C[C@H](O)[C@@H](CO)O2)c(=O)n1 [Decitabine] (partner 2 µM)
# Procedure, shortened: as §1
# YM155 + Alpelisib = compound: COCC[n+]1c2c(n(Cc3cnccn3)c1C)C(=O)c1ccccc1C2=O [YM155] + Cc1nc(NC(=O)N2CCC[C@H]2C(N)=O)sc1-c1ccnc(C(C)(C)C(F)(F)F)c1 [Alpelisib] (partner 2 µM)
# Procedure, shortened: as §1
# YM155 + Lapatinib = compound: COCC[n+]1c2c(n(Cc3cnccn3)c1C)C(=O)c1ccccc1C2=O [YM155] + CS(=O)(=O)CCNCc1ccc(-c2ccc3ncnc(Nc4ccc(OCc5cccc(F)c5)c(Cl)c4)c3c2)o1 [Lapatinib] (partner 2 µM)
# Procedure, shortened: as §1
Cell Line,relative viability (Quizartinib + Vorinostat; first compound 0.001 µM),relative viability (Quizartinib + Vorinostat; first compound 0.003162 µM),relative viability (Quizartinib + Vorinostat; first compound 0.01 µM),relative viability (Quizartinib + Vorinostat; first compound 0.03162 µM),relative viability (Quizartinib + Vorinostat; first compound 0.1 µM),relative viability (Quizartinib + Decitabine; first compound 0.001 µM),relative viability (Quizartinib + Decitabine; first compound 0.003162 µM),relative viability (Quizartinib + Decitabine; first compound 0.01 µM),relative viability (Quizartinib + Decitabine; first compound 0.03162 µM),relative viability (Quizartinib + Decitabine; first compound 0.1 µM),relative viability (YM155 + Alpelisib; first compound 0.002 µM),relative viability (YM155 + Alpelisib; first compound 0.006325 µM),relative viability (YM155 + Alpelisib; first compound 0.02 µM),relative viability (YM155 + Alpelisib; first compound 0.06325 µM),relative viability (YM155 + Lapatinib; first compound 0.002 µM),relative viability (YM155 + Lapatinib; first compound 0.006325 µM),relative viability (YM155 + Lapatinib; first compound 0.02 µM),relative viability (YM155 + Lapatinib; first compound 0.06325 µM)
HOP-62,0.456,0.429,0.577,0.566,0.619,0.215,0.219,0.217,0.227,0.213,1.14,0.921,0.633,0.775,0.831,1.02,0.973,0.961
IA-LM,0.71,0.811,–,0.874,0.955,–,–,–,–,–,0.578,0.907,0.738,0.644,0.781,0.741,0.652,0.283
LC-2-ad,0.603,0.688,0.733,0.681,0.694,0.718,0.81,0.776,0.841,0.68,0.768,0.977,1,0.392,0.997,0.92,0.946,0.907
LCLC-97TM1,0.573,0.52,0.685,0.677,0.767,0.225,0.253,0.237,0.218,0.21,0.297,0.228,0.272,0.328,1.04,1.03,1,0.551
LCLC-103H,0.743,0.735,0.663,0.812,0.779,0.632,0.735,0.682,0.796,0.759,1,0.997,0.946,1.09,–,–,–,–
LK-2,0.179,0.185,0.306,0.315,0.294,0.263,0.215,0.363,0.348,0.438,1.17,1.05,1.13,1.12,0.893,0.966,0.94,0.885
LOU-NH91,0.86,1.04,0.899,0.721,1.12,0.746,0.815,0.862,0.79,0.89,0.767,0.674,0.76,0.745,0.828,0.778,0.778,0.788
LU99A,0.373,0.51,0.449,0.481,0.502,0.923,0.918,1.02,0.895,0.625,0.541,0.453,0.456,0.439,0.965,0.884,0.809,0.589
LXF-289,0.645,0.752,0.782,0.726,0.738,0.347,0.321,0.427,0.432,0.42,1.02,1.04,0.967,0.939,0.891,0.892,0.905,0.713
